Patent publication US20240408211A1, “COMPOSITIONS AND METHODS OF AMELIORATING AVERSIVENESS OF AVERSIVE STIMULI BY INHIBITION OF PURINERGIC RECEPTORS” (Monell Chemical Senses Center, priority 2021, published 2024)

Key:
rats = conditions: cited from earlier work
C57BL/6J mice = assay: Brief-exposure gustometer lick test after oral swabbing (or IP injection) of briefly anesthetized mice; assay type: in vivo, mouse
Excerpt: The methods were adapted from those described by Vandenbeuch et al [Vandenbeuch, A., et al., Postsynaptic P2X3-containing receptors in gustatory nerve fibres mediate responses to all taste qualities in mice. J Physiol 593:1113-1125; 2015] who, (a) in anesthetized mice, flowed AF-353 over the anterior tongue then recorded gustatory nerve responses to tastants [see also (Larson, E. D., et al., Function, innervation, and neurotransmitter signaling in mice lacking Type-II taste cells. eNeuro 7; 2020)] and (b), in awake mice, injected AF-353 intraperitoneally then measured licking for the sweetener SC-45647. Here, we applied AF-353 to the oral cavity of briefly anesthetized mice then measured licking using procedures similar to those of our past work [Med Associates inc. Products: Gustometry, med-associates.com/product/davis-rig-for-mouse-16-bottle/. 2022; Taruno, A., et al., CALHM1 ion channel mediates purinergic neurotransmission of sweet, bitter and umami tastes. Nature 495:223-226; 2013; Tordoff, M. G., et al., Normal taste acceptance and preference of PANX1 knockout mice. Chem. Senses 2015 May 18. pii: bjv025; 2015; Tordoff, M. G.; Aleman, T. R.; McCaughey, S. A. Heightened avidity for trisodium pyrophosphate in mice lacking Taslr3. Chem. Senses 40:53-59; 2014; Tordoff, M. G.; Ellis, H. T. Taste dysfunction in BTBR mice due to a mutation of Itpr3, the inositol triphosphate receptor 3 gene. Physiol. Genomics 45:834-855; 2013] and other investigators [Glendinning, J. I.; Gresack, J.; Spector, A. C. A high-throughput screening procedure for identifying mice with aberrant taste and oromotor function. Chem. Senses 27:461-474; 2002].
Groups of 16 male C57BL/6J mice aged 7 weeks old were purchased from The Jackson Laboratory (strain ID number 000664). They were maintained in a vivarium at 23° C. on a 12 h:12 h light/dark cycle, with lights off at 1800. When not being tested, mice were housed alone in plastic tub cages (26.5×17×12 cm) with a stainless-steel grid lid and wood chips scattered on the floor [see (Tordoff, M. G.; Bachmanov, A. A. Monell mouse taste phenotyping project. Monell Chemical Senses Center, monell.org/MMTPP. 2001) for details]. The mice ate pelleted chow (Teklad 8601) and drank deionized water according to the regimen described below. Each mouse was weighed daily, immediately before it was placed into a gustometer.
Brief-exposure taste acceptance was assessed using MS160-Mouse gustometers manufactured by DiLog Instruments (now available from Med Associates). Each gustometer consists of a 14.5×30×15 cm test chamber with a motorized shutter that controls access to a taste solution. Bottles of taste solution are mounted on a rack that is precisely positioned by a stepper motor so that any one of eight different taste solutions can be presented to the mouse. The drinking spout of each bottle is part of a high-frequency alternating current contact circuit, so that each lick the mouse makes is detected and recorded. Details of construction and other technical information are available elsewhere [Med Associates inc. Products: Gustometry, med-associates.com/product/davis-rig-for-mouse-16-bottle/. 2022; Sheridan, C. Merck stakes out ‘irritable’ neuron territory with $1.25 billion. Nature biotechnology 34:900; 2016].
To train the mice to sample taste solutions, they were first deprived of water for 22.5 h, and then placed into a gustometer with its shutter open. During this first training session, each mouse had continuous access to water for 30 min. It was then returned to its home cage and given water for 1 h. During the following two days, this procedure was repeated, except the shutter allowing access to water was closed 5 sec after each time the mouse began to lick, and was re-opened after a 7.5-sec interval. After 20 min, the mouse was returned to its home cage and given water for 1 h. By the second test using these procedures, nearly all mice had learned to obtain water during the 5-sec access periods. […]

P2X3/P2X2/3 = conditions: cited from earlier work
[1] = 0.3, 1 or 3 mM swabbed orally for 4 min versus vehicle
[2] = oral swabbing for 2, 4 or 8 min versus no swabbing

For `COc1cc(C(C)C)c(Oc2cnc(N)nc2N)cc1I` [AF-353, 5-[5-iodo-4-methoxy-2-(1-methylethyl)phenoxy]-2,4-pyrimidinediamine], the “pain caused by bone cancer” value (rats) is given as “attenuate”, the “licking for 1 mM QHCl, oral versus intraperitoneal administration of the same dose” value (C57BL/6J mice; 0.41 μmol/mouse) is given as “significantly more after AF-353 administered orally” and the “licking for 1 mM QHCl versus DMSO vehicle” value (C57BL/6J mice; 0.41 μmol/mouse by oral swabbing or IP injection (either route)) is given as “licked significantly more”. For the same compound, the “effect on licking for capsaicin (ANOVA)” value (C57BL/6J mice; 3 mM for 4 min) was “neither a main effect of AF-353 nor an AF-353× concentration interaction”, the “licking of the hedonically positive tastant saccharin relative to DMSO vehicle” value (C57BL/6J mice; 3 mM for 4 min) was “licked less” and the “licking of hedonically negative tastants relative to DMSO vehicle” value (C57BL/6J mice; 3 mM for 4 min, all (QHCl, urea, denatonium, SOA, Tenofovir Alafenamide, Praziquantel, Ferroquine, citric acid) except NaCl and capsaicin) was “licked more”. The “licking for 1 mM QHCl after oral treatment versus either vehicle” value (C57BL/6J mice; 3 mM in DMSO or alcohol+Tween) was “licked significantly more”, the “influence of the vehicle composition (DMSO or alcohol+Tween) on licking rates” value (C57BL/6J mice; 3 mM oral swab, water or 1 mM QHCl) was “did not influence licking rates” and the “lick rates for 1 mM QHCl compared with deionized water” value (C57BL/6J mice; 3 mM swabbed orally for 4 min) was “statistically indistinguishable”. The “licking after oral swabbing relative to oral swabbing with DMSO vehicle (FIG. 4A)” value (C57BL/6J mice; 3 mM, 0.41 μmol/mouse, route experiment) was “reduced licking”, the “1 mM QHCl licking after 60-min interval relative to 10- and 30-min intervals” value (C57BL/6J mice; 3 mM, 4 min) was “significantly reduced” and the “lick rates for 1 mM QHCl, 10-min versus 30-min swab-test interval” value (C57BL/6J mice; 3 mM, 4 min) was “no difference”. The “effectiveness at 90 min after oral treatment” value (C57BL/6J mice; 3 mM, 4 min, 1 mM QHCl licking) was “completely dissipated”, the “lick rates for water by swab-test interval” value (C57BL/6J mice; 3 mM, 4 min, interval 10, 30, 60 or 90 min) was “no effect” and the “lick rate for 1 mM QHCl” value (C57BL/6J mice; [1]) was “concentration-related increase”. The “lick rates for deionized water” value (C57BL/6J mice; [1]) was “no significant effects”, the “Licks to water (mean ± SE licks made in 10-sec tests)” value (C57BL/6J mice; Capsaicin experiment, 3 mM oral swab) was 50 ± 9 and the “Licks to water (mean ± SE licks made in 10-sec tests)” value (C57BL/6J mice; Citric acid experiment, 3 mM oral swab) was 44 ± 4. The “Licks to water (mean ± SE licks made in 10-sec tests)” value (C57BL/6J mice; Denatonium experiment, 3 mM oral swab) was 53 ± 3, the “Licks to water (mean ± SE licks made in 10-sec tests)” value (C57BL/6J mice; Ferroquine experiment, 3 mM oral swab) was 47 ± 3 and the “Licks to water (mean ± SE licks made in 10-sec tests)” value (C57BL/6J mice; NaCl experiment, 3 mM oral swab) was 57 ± 5. The “Licks to water (mean ± SE licks made in 10-sec tests)” value (C57BL/6J mice; Praziquantel experiment, 3 mM oral swab) was 52 ± 3, the “Licks to water (mean ± SE licks made in 10-sec tests)” value (C57BL/6J mice; QHCl experiment, 3 mM oral swab) was 56 ± 4 and the “Licks to water (mean ± SE licks made in 10-sec tests)” value (C57BL/6J mice; Saccharin experiment, 3 mM oral swab) was 14 ± 2. The “Licks to water (mean ± SE licks made in 10-sec tests)” value (C57BL/6J mice; Tenofovir experiment, 3 mM oral swab) was 56 ± 2, the “Licks to water (mean ± SE licks made in 10-sec tests)” value (C57BL/6J mice; Urea experiment, 3 mM oral swab) was 43 ± 5 and the “lick rates for 1 mM QHCl” value (C57BL/6J mice; [2]) was “increased monotonically”. The “lick rates for deionized water” value (C57BL/6J mice; [2]) was “reduced lick rates for deionized water significantly” and the P2X3/P2X2/3 antagonist potency (P2X3/P2X2/3) was “high”.
